Experiment [1] concerns TA3. In words: Growth inhibition of mouse TA3 cells. Type of experiment: functional.
For experiment [2], the system named is TA3. In words: Growth inhibition of mouse TA3 cells at 10^-4 M. Type of experiment: functional.

The values that follow come from ChEMBL document CHEMBL3272110, “Synthesis and biological properties of 4-amino- and 4-bromo-4-norpyridoxol. New approaches for the modification of the 4 position of vitamin B6” (1976).

The source made the active and inactive calls. No cut-off for these calls is given here.

The compound `Cc1ncc(CO)c(C(F)(F)F)c1O` had an ID50 in the experiment with TA3 [1] of 2 ×10⁻⁵ M.
Regarding `Cc1ncc(CO)c(O)c1O`, in the experiment on TA3 [2], the “growth inhibition (GI)” value was “inactive”.
Still for that read-out and setting: the result for `Cc1ncc(CO)c(N)c1O` reads “inactive”.
Regarding `Cc1ncc(CO)c(/C=N/O)c1O`, the ID50 with TA3 [1] was found to be 8 ×10⁻⁵ M.
`Cc1ncc(CBr)c(N)c1O`: the inhibition of growth at 100 µM in the experiment with TA3 [2] (read-out: GI) was determined as 30%.
For `Br.Cc1ncc(CO)c(Br)c1O`, the ID50 with TA3 [1] was 1 ×10⁻⁵ M.
